According to ChEMBL document CHEMBL4765227, “Hit to lead optimization of a series of N-[4-(1,3-benzothiazol-2-yl)phenyl]acetamides as monoacylglycerol lipase inhibitors with potential anticancer activity” (Eur J Med Chem, 2016):

How the values were obtained:
Type in all cases: functional
[1] = system: LOX IMVI; assay: Growth inhibition of human LOX IMVI cells incubated for 48 hrs by sulforhodamine B assay
[2] = system: K562; assay: Growth inhibition of human K562 cells at 10 uM incubated for 48 hrs by sulforhodamine B assay relative to control; conditions: read-out: GI
[3] = system: NCI-H460; assay: Growth inhibition of human NCI-H460 cells incubated for 48 hrs by sulforhodamine B assay
[4] = system: COLO 205; assay: Growth inhibition of human COLO 205 cells incubated for 48 hrs by sulforhodamine B assay
[5] = system: NCI-H460; assay: Growth inhibition of human NCI-H460 cells at 10 uM incubated for 48 hrs by sulforhodamine B assay relative to control; conditions: read-out: GI
[6] = system: SK-MEL-28; assay: Growth inhibition of human SK-MEL-28 cells at 10 uM incubated for 48 hrs by sulforhodamine B assay relative to control; conditions: read-out: GI
[7] = system: NCI-H322M; assay: Growth inhibition of human NCI-H322M cells incubated for 48 hrs by sulforhodamine B assay
[8] = system: SK-MEL-5; assay: Growth inhibition of human SK-MEL-5 cells at 10 uM incubated for 48 hrs by sulforhodamine B assay relative to control; conditions: read-out: GI
[9] = system: HT-29; assay: Growth inhibition of human HT-29 cells incubated for 48 hrs by sulforhodamine B assay
[10] = system: U-251; assay: Growth inhibition of human U-251 cells incubated for 48 hrs by sulforhodamine B assay
[11] = system: TK-10; assay: Growth inhibition of human TK-10 cells at 10 uM incubated for 48 hrs by sulforhodamine B assay relative to control; conditions: read-out: GI
[12] = system: CCRF-CEM; assay: Growth inhibition of human CCRF-CEM cells at 10 uM incubated for 48 hrs by sulforhodamine B assay relative to control; conditions: read-out: GI
[13] = system: RPMI-8226; assay: Growth inhibition of human RPMI-8226 cells incubated for 48 hrs by sulforhodamine B assay
[14] = system: SF-268; assay: Growth inhibition of human SF-268 cells incubated for 48 hrs by sulforhodamine B assay
[15] = system: OVCAR-3; assay: Growth inhibition of human OVCAR-3 cells incubated for 48 hrs by sulforhodamine B assay
[16] = system: SR; assay: Growth inhibition of human SR cells incubated for 48 hrs by sulforhodamine B assay
[17] = system: EKVX; assay: Growth inhibition of human EKVX cells incubated for 48 hrs by sulforhodamine B assay
[18] = system: A549; assay: Growth inhibition of human A549/ATCC cells incubated for 48 hrs by sulforhodamine B assay
[19] = system: T47D; assay: Growth inhibition of human T47D cells at 10 uM incubated for 48 hrs by sulforhodamine B assay relative to control; conditions: read-out: GI
[20] = system: SK-OV-3; assay: Growth inhibition of human SK-OV-3 cells incubated for 48 hrs by sulforhodamine B assay
[21] = system: BT-549; assay: Growth inhibition of human BT-549 cells at 10 uM incubated for 48 hrs by sulforhodamine B assay relative to control; conditions: read-out: GI
[22] = system: UACC-62; assay: Growth inhibition of human UACC-62 cells at 10 uM incubated for 48 hrs by sulforhodamine B assay relative to control; conditions: read-out: GI
[23] = system: SK-MEL-2; assay: Growth inhibition of human SK-MEL-2 cells at 10 uM incubated for 48 hrs by sulforhodamine B assay relative to control; conditions: read-out: GI
[24] = system: SNB-19; assay: Growth inhibition of human SNB-19 cells at 10 uM incubated for 48 hrs by sulforhodamine B assay relative to control; conditions: read-out: GI
[25] = system: SK-OV-3; assay: Growth inhibition of human SK-OV-3 cells at 10 uM incubated for 48 hrs by sulforhodamine B assay relative to control; conditions: read-out: GI
[26] = system: HCT-116; assay: Growth inhibition of human HCT-116 cells incubated for 48 hrs by sulforhodamine B assay
[27] = system: SNB-75; assay: Growth inhibition of human SNB-75 cells incubated for 48 hrs by sulforhodamine B assay
[28] = system: MDA-MB-435; assay: Growth inhibition of human MDA-MB-435 cells at 10 uM incubated for 48 hrs by sulforhodamine B assay relative to control; conditions: read-out: GI
[29] = system: 786-0; assay: Growth inhibition of human 786-0 cells incubated for 48 hrs by sulforhodamine B assay
[30] = system: IGROV-1; assay: Growth inhibition of human IGROV-1 cells at 10 uM incubated for 48 hrs by sulforhodamine B assay relative to control; conditions: read-out: GI
[31] = system: SK-MEL-2; assay: Growth inhibition of human SK-MEL-2 cells incubated for 48 hrs by sulforhodamine B assay
[32] = system: MDA-MB-468; assay: Growth inhibition of human MDA-MB-468 cells incubated for 48 hrs by sulforhodamine B assay
[33] = system: HL-60(TB); assay: Growth inhibition of human HL-60(TB) cells incubated for 48 hrs by sulforhodamine B assay
[34] = system: EKVX; assay: Growth inhibition of human EKVX cells at 10 uM incubated for 48 hrs by sulforhodamine B assay relative to control; conditions: read-out: GI
[35] = system: A498; assay: Growth inhibition of human A498 cells at 10 uM incubated for 48 hrs by sulforhodamine B assay relative to control; conditions: read-out: GI
[36] = read-out: LC50 (the source's name)

For `O=C(CNc1c(Cl)cccc1Cl)Nc1ccc(-c2nc3ccccc3s2)cc1`, the GI50 [1] was 1.19 µM, the LC50 [1] was 6.03 µM and the TGI [1] was 2.68 µM. It also gave an inhibition of growth at 10 µM [2] of 89.5%, a GI50 [3] of 3.36 µM and a TGI [3] of 12.4 µM. The CC50 [3, 36] was 43 µM, the GI50 [4] was 2.1 µM and the LC50 [4] was 8.79 µM. The TGI [4] was 4.29 µM, the inhibition of growth at 10 µM [5] was 8.81% and the inhibition of growth at 10 µM [6] was -3.93%. The GI50 [7] was 1.8 µM, the LC50 (concentration killing 50% of cells) [7] was 7.07 µM and the TGI [7] was 3.57 µM. The inhibition of growth at 10 µM [8] was 78.8%, the GI50 [9] was 2.01 µM and the LC50 [9] was 8.66 µM. It also gave a TGI [9] of 4.17 µM, a GI50 [10] of 2.02 µM and an LC50 (lethal concentration 50) [10] of 9.45 µM. For the same compound, the TGI [10] was 4.37 µM, the inhibition of growth at 10 µM [11] was -6.12% and the inhibition of growth at 10 µM [12] was 97.8%. The GI50 [13] was 2.07 µM, the LC50 [13] was over 100 µM and the TGI [13] was 5.21 µM. For the same compound, the GI50 [14] was 1.99 µM, the LC50 [14] was 9.52 µM and the TGI [14] was 4.35 µM. For the same compound, the GI50 [15] was 1.81 µM, the LC50 [15] was 5.79 µM and the TGI [15] was 3.24 µM. The GI50 [16] was 1.05 µM, the LC50 [16] was over 100 µM and the TGI [16] was 5.33 µM. For the same compound, the GI50 [17] was 8.29 µM, the LC50 [17] was 55.2 µM and the TGI [17] was 22.6 µM. The GI50 [18] was 3.65 µM, the TGI [18] was 16.9 µM and the CC50 [18, 36] was over 100 µM. It also gave an inhibition of growth at 10 µM [19] of 119%, a GI50 [20] of 5.84 µM and an LC50 (concentration killing 50% of cells) [20] of over 100 µM. For the same compound, the TGI [20] was 50.9 µM, the inhibition of growth at 10 µM [21] was 78% and the inhibition of growth at 10 µM [22] was 64.9%. For the same compound, the inhibition of growth at 10 µM [23] was 15.2%, the inhibition of growth at 10 µM [24] was 26.1% and the inhibition of growth at 10 µM [25] was 2.25%. The GI50 [26] was 2.14 µM, the TGI [26] was 6.14 µM and the CC50 [26, 36] was 29 µM. For the same compound, the GI50 [27] was 2.97 µM, the LC50 (concentration killing 50% of cells) [27] was 39.2 µM and the TGI [27] was 15.4 µM. For the same compound, the inhibition of growth at 10 µM [28] was 32.1%, the GI50 [29] was 1.76 µM and the LC50 (50% lethal concentration) [29] was 8.34 µM. It also gave a TGI [29] of 3.83 µM, an inhibition of growth at 10 µM [30] of 50.7% and a GI50 [31] of 4.14 µM. For the same compound, the LC50 (lethal concentration, 50% cell kill) [31] was over 100 µM, the TGI [31] was 18.8 µM and the GI50 [32] was 0.0251 µM. It also gave a TGI [32] of 0.137 µM, a CC50 [32, 36] of 4.33 µM and a GI50 [33] of 2.43 µM. For the same compound, the TGI [33] was 8.38 µM and the CC50 [33, 36] was over 100 µM.
Compound `O=C(Cn1ccc2ccccc21)Nc1ccc(-c2nc3ccccc3s2)cc1` has an inhibition of growth at 10 µM [2] of -3.37%, an inhibition of growth at 10 µM [5] of -4.62% and an inhibition of growth at 10 µM [6] of -13.7%. The inhibition of growth at 10 µM [8] was 1.44%, the inhibition of growth at 10 µM [34] was -7.41% and the inhibition of growth at 10 µM [35] was 0.94%. For the same compound, the inhibition of growth at 10 µM [11] was -3.65%, the inhibition of growth at 10 µM [12] was 2.97% and the inhibition of growth at 10 µM [19] was 9.38%. The inhibition of growth at 10 µM [21] was -5.34%, the inhibition of growth at 10 µM [22] was 5.01% and the inhibition of growth at 10 µM [24] was 1.41%. For the same compound, the inhibition of growth at 10 µM [25] was -1.65%, the inhibition of growth at 10 µM [28] was -3.52% and the inhibition of growth at 10 µM [30] was 26.2%.
